In patent US8242088B2, “Carrier vectors through an epithelium with tight junctions” (Centre National de la Recherche Scientifique, priority 2000, dated 2012):
No end group written: not given here.

System: MDCK (Madin-Darby Canine Kidney) cells
Test: Passage across an epithelium with tight junctions (TRANSWELL system)
Format: in vitro ADME
Conditions: for passage into the apical compartment: Example 4: basolateral compartment, 10 μM, 30 minutes at 370° C.
Experimental: The passage of the Penet and NES-Penet peptides across an epithelium with tight junctions was evaluated using the device (TRANSWELL system, CORNING-COSTAR) represented in FIG. 3.
This device comprises two compartments (1, 2) separated by a microporous polyester membrane (3) on which an epithelium (4) consisting of MDCK (Madin-Darby Canine Kidney) cells has been established. The cells are seeded and grow to confluence.
The compartment (1) in contact with the microporous membrane and the basolateral pole of the cells is referred to as the basolateral compartment. The compartment (2), in contact with the apical pole of the cells, is referred to as the apical compartment.
Each of the compartments is filled with medium consisting of the following: Minimum Essential Medium with Earle Salt (MEM), 2 mM glutamine, 2 mM Hepes, pH 7, 5 U/ml penicillin, 5 μg/ml streptomycin, supplemented with a mixture of protease inhibitors.
For each experiment, the integrity of the tight junctions is controlled by measuring the resistance between the two compartments (R>2000Ω/cm^2).
Moreover, the tightness of the epithelium was also verified by adding […] inulin (6.5×10^5 cpm/compartment), either to the apical compartment or to the basolateral compartment, and measuring the radioactivity in the other compartment 180 minutes later. […]
The peptides are precipitated by adding 10% trichloro-acetic acid (TCA), and taken up in boiling Laemmli medium. […] The presence of the Penet-1 or NES-Penet peptides in the starting compartment, in the end compartment, or inside the cells, is detected by revelation with streptavidin-peroxidase as indicated in Example 1 above. […]
At the end of the incubation, the contents of the basolateral compartment and of the apical compartment, and that of the cells, were analyzed as described above in order to detect the presence of the NES-Penet peptide.
Furthermore, the passage of the peptides across an epithelium with tight junctions was evaluated using the device described in Example 2 above. […]

passage into the apical compartment | degradation of the peptide during passage | Compound
much greater | – | CC[C@H](C)[C@H](NC(=O)[C@H](CCCCN)NC(=O)[C@@H]1CCCN1C(=O)[C@H](CCC(N)=O)NC(=O)[C@H](CCCNC(=N)N)NC(=O)[C@H](CCC(=O)O)NC(=O)[C@H](CC(N)=O)NC(=O)[C@H](CC(C)C)NC(=O)CNC(=O)[C@H](CC(C)C)NC(=O)[C@H](CCC(=O)O)NC(=O)[C@H](CCC(N)=O)NC(=O)[C@H](C)NC(=O)[C@H](CC(C)C)NC(=O)[C@H](CO)NC(=O)[C@H](CCC(N)=O)NC(=O)CCCCNC(=O)CCCC[C@@H]1SC[C@@H]2NC(=O)N[C@@H]21)C(=O)N[C@@H](Cc1c[nH]c2ccccc12)C(=O)N[C@@H](Cc1ccccc1)C(=O)N1CCC[C@H]1C(=O)N[C@@H](CC(N)=O)C(=O)N[C@@H](CCCNC(=N)N)C(=O)N[C@@H](CCCNC(=N)N)C(=O)N[C@@H](CCCCN)C(=O)N1CCC[C@H]1C(=O)N[C@@H](Cc1c[nH]c2ccccc12)C(=O)N[C@@H](CCCCN)C(=O)N[C@@H](CCCCN)C(=O)O [NES-Pen3P]
– | not accompanied by any degradation | CC[C@H](C)[C@H](NC(=O)[C@H](CCCCN)NC(=O)[C@@H](NC(=O)[C@H](CCC(N)=O)NC(=O)[C@H](CCCNC(=N)N)NC(=O)[C@H](CCC(=O)O)NC(=O)[C@H](CC(N)=O)NC(=O)[C@H](CC(C)C)NC(=O)CNC(=O)[C@H](CC(C)C)NC(=O)[C@H](CCC(=O)O)NC(=O)[C@H](CCC(N)=O)NC(=O)[C@H](C)NC(=O)[C@H](CC(C)C)NC(=O)[C@H](CO)NC(=O)[C@H](CCC(N)=O)NC(=O)CCCCNC(=O)CCCC[C@@H]1SC[C@@H]2NC(=O)N[C@@H]21)[C@@H](C)CC)C(=O)N[C@@H](Cc1c[nH]c2ccccc12)C(=O)N[C@@H](Cc1ccccc1)C(=O)N[C@@H](CCC(N)=O)C(=O)N[C@@H](CC(N)=O)C(=O)N[C@@H](CCCNC(=N)N)C(=O)N[C@@H](CCCNC(=N)N)C(=O)N[C@@H](CCSC)C(=O)N[C@@H](CCCCN)C(=O)N[C@@H](Cc1c[nH]c2ccccc12)C(=O)N[C@@H](CCCCN)C(=O)N[C@@H](CCCCN)C(=O)O [NES-Penet]
very slight passage | – | RQPKIWFPNRRKPWKK [Pen3P, RQPKIWFPNRRKPWKK, reference compound]
